Experiments:
[1] = tested on: HeLa CAIX-KO and normoxia-grown WT HeLa cells; test: Fluorescein-labeled compound dosing to CAIX-KO and normoxia-grown HeLa cells (non-specific binding); assay type: cell-based, human
Procedure: (§1) HeLa cell culture was grown in 12-well plates, either under hypoxia (1% O2) or under normoxia (21% O2), for 70 to 76 h. The medium was removed. Then 200 µL of serially diluted compound (twelve twofold steps) in the FB medium, usually starting at 80 nM (80, 40, 20, …, 0 nM), was added and incubated at 37 ℃ under normoxia in the CO2 incubator for 20 min (2 or 5 min in some experiments where specified). Then the compound solution was removed and the cells were washed 3 times for 1.5–2 min with 400 µL of PBS at RT. Then 180 µL of TrypLe express enzyme (ThermoFisher) was added to each well and incubated in CO2 incubator for 5 min to 10 min until the cells deattached from the surface. After addition of 20 µL of Defined Trypsin Inhibitor solution (ThermoFisher), cells were resuspended by pipetting and 150 µL of the suspension from each well were transferred to black Thermo Scientific™ Nunc MicroWell 96-Well Optical-Bottom Plates for fluorescence and absorbance measurements. The fluorescence was recorded at 485 nm excitation and 520 nm emission wavelengths in the plate reader (Synergy HTX, BioTek). The absorbance was recorded at 650 nm to measure the optical density of the cell suspension.
(§2) The compound solution was prepared by weighing 3–5 mg of a purified compound and dissolving in DMSO at 10 mM concentration. The 1 mM compound stock in DMSO was prepared by taking 10 µL of 10 mM stock and adding to 90 µL DMSO. The 10 µM compound stock was prepared by taking 10 µL of 1 mM compound stock in DMSO and adding 990 µL of the FB medium (this stock contained 1% of DMSO). Then 80 nM compound solution was prepared by taking 10 µL of 10 µM solution and adding 1.24 mL of the FB medium and placed to the first Eppendorf tube. Then 300 µL of FB medium were added to the Eppendorf tubes 2 to 12. A serial dilution was performed by taking 300 µL of solution from tube 1 to 2, then from 2 to 3 and so on while mixing vigorously at each step. No solution was transferred to the last tube thus it contained only FB medium and no compound. Then 200 µL from 12 tubes were transferred to the 12 wells of cell culture-containing 12-well plate, starting from the lowest concentration.
This equation was fit to the dosing curves of several fluorescently-labeled ligands to both the cells grown in hypoxia and in normoxia, both to the WT and CRISPR-Cas9 CAIX knockout cells. The cells bound both the GZ19-32 and GZ20-40 ligands that differed only in the length of the linker and both contained the same head-group. […] Furthermore, the ligands that had their sulfonamide amino group substituted with the methyl completely abandoned their capability of binding CAIX in this concentration region. The binding was also abolished for the CAIX-KO HeLa cells.

CAVA = molecular target: T1, CAVA (Homo sapiens, UniProt P35218); test: Thermal shift assay (TSA), recombinant CAVA; assay type: binding; details: 37 °C, pH 7.0, observed (not intrinsic)
T1 construct: made in house; host or cells: E. coli
T1 sequence (P35218 39-305): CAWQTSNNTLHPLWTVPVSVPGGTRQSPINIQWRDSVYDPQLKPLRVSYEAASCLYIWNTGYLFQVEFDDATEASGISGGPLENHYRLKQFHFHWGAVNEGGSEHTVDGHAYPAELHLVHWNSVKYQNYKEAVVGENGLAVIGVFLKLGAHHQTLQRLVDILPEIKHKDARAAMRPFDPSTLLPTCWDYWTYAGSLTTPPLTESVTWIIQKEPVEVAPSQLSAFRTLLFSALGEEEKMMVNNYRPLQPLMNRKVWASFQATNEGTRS
Procedure: (§3) The binding affinities of all fluorescein-containing compounds were determined for all 12 catalytically active CA isozymes by the thermal shift assay (TSA). […] However, the SFA technique cannot determine the affinities lower than the enzyme concentration used in the assay. […] In addition, we used isothermal titration calorimetry (ITC), the standard assay to determine affinity and enthalpy of protein–ligand binding. […] Therefore, ITC was used only to determine the enthalpy of interaction and confirm the ordering of compound affinities.
(§4) All twelve catalytically active human CA isozymes were prepared recombinantly as previously described. Isozymes CAIX, CAXII, and CAXIV were the catalytic domains of the proteins[14],[38]. All isozymes were expressed in E. coli except CAIX that has been prepared in mammalian cells. The proteins were chromatographically purified on ion-exchange or benzene sulfonamide containing affinity columns. Protein MW was confirmed by mass spectrometry with 1 Da precision as predicted from gene sequence.
(§5) Compound affinities for the twelve catalytically active CA isozymes were determined by the thermal shift assay as previously described[30],[39]. Protein solutions containing 1,8-anilinonaphthalenesulfonate fluorescent probe were heated from 25 to 100 °C at a rate of one degree per minute while following the fluorescence of the probe. The temperature scanning curves provided the melting temperature Tm of the protein. The Tm has a distinct dependence on the concentration of a compound. Stronger binders shift the Tm to a greater extent than the weak binders. The Tm dependencies on compound concentration were fit to obtain the affinity Kd[40].

CAII = molecular target: T2, CAII (Homo sapiens, UniProt P00918); test: Thermal shift assay (TSA), recombinant CAII; assay type: binding; details: 37 °C, pH 7.0, observed (not intrinsic)
T2 construct: made in house; host or cells: E. coli
Procedure: as §3, §4, §5

CAIX on live HeLa cells = molecular target: T3, CAIX on live HeLa cells (Homo sapiens, UniProt Q16790); test: Fluorescence microscopy (widefield, SRRF/TIRF) of live HeLa cells stained with fluorescein-labeled compounds; assay type: cell-based; details: 10 nM; for staining of live HeLa cells grown under hypoxia: 5 min
T3 construct: recombinant CAIX and endogenous CAIX expressed on the cell surface; endogenous in cells; host or cells: HeLa (WT), grown under hypoxia (1% O2)

[2] = molecular target: T4, CAIX expressed on HeLa cells (Homo sapiens, UniProt Q16790); test: Fluorescein-labeled compound dosing to hypoxia-grown WT HeLa cells (Morrison single-site model); assay type: cell-based
T4 construct: recombinant CAIX and endogenous CAIX expressed on the cell surface; endogenous in cells; host or cells: HeLa (WT), grown under hypoxia (1% O2)
Procedure: as §1, §2
Application of fluorescently labeled ligand GZ19-32 to cancer cells expressing CAIX will stain the cells in dose-dependent manner. The fraction of saturation increases from 0 to 1. The fraction of bound GZ19-32 (f) is equal to the molar concentration of bound GZ19-32 per molar concentration of total available CAIX, the so-called total protein Pt . f=GZ19-32bound/Pt
Upon GZ19-32 dosing, the observed fluorescence signal F can be modeled to change from the minimal background signal ( Fmin ) to maximal saturated value ( Fmax ): F=Fmin+Fmax-Fminf […]

CAXII = molecular target: T5, CAXII (Homo sapiens, UniProt O43570); test: Thermal shift assay (TSA), recombinant CAXII; assay type: binding; details: 37 °C, pH 7.0, observed (not intrinsic)
T5 construct: Isozymes CAIX, CAXII, and CAXIV were the catalytic domains of the proteins; made in house; host or cells: E. coli
T5 sequence (O43570 30-289 limits assumed): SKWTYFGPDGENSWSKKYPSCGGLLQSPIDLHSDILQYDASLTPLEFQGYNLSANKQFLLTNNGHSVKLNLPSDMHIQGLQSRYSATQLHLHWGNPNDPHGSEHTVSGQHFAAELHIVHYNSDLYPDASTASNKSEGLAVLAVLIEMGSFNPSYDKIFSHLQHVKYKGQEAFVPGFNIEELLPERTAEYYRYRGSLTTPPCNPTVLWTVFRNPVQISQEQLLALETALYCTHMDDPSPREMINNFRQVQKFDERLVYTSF
Procedure: as §3, §4, §5

CAI = molecular target: T6, CAI (Homo sapiens, UniProt P00915); test: Thermal shift assay (TSA), recombinant CAI; assay type: binding; details: 37 °C, pH 7.0, observed (not intrinsic)
T6 construct: made in house; host or cells: E. coli
T6 sequence (P00915 whole entry): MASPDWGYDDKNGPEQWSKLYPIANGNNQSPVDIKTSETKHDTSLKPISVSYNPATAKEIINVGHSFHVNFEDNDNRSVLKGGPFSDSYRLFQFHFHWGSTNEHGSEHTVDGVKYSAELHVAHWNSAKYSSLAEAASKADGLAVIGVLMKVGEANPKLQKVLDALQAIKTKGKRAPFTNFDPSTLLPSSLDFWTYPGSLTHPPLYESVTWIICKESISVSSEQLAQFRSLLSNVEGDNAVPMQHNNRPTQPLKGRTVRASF

CAVB = molecular target: T7, CAVB (Homo sapiens, UniProt Q9Y2D0); test: Thermal shift assay (TSA), recombinant CAVB; assay type: binding; details: 37 °C, pH 7.0, observed (not intrinsic)
T7 construct: made in house; host or cells: E. coli
T7 sequence (Q9Y2D0 34-317): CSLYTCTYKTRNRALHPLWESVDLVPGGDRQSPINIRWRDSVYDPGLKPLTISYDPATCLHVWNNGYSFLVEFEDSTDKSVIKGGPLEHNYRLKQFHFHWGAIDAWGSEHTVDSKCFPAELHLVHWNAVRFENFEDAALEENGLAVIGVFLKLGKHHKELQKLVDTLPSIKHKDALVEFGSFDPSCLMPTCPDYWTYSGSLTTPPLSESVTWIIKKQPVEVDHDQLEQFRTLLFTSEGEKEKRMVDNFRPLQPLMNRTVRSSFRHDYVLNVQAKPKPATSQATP

[3] = molecular target: T8, CAIX expressed on live HeLa cells (Homo sapiens, UniProt Q16790); test: Competition of unlabeled compound with 10 nM GZ19-32 on hypoxic HeLa cells (competitive binding model); assay type: cell-based; details: fit parameter of the competitive binding model, HeLa cells; read-out: KdB (competing fluorescent compound, component B)
T8 construct: recombinant CAIX and endogenous CAIX expressed on the cell surface; endogenous in cells; host or cells: HeLa (WT), grown under hypoxia (1% O2)

melting point [°C]	Manders overlap coefficient M1, colocalization with H7 CAIX antibody (CAIX on live HeLa cells; hypoxia-grown live HeLa cells)	Manders overlap coefficient M2, colocalization with H7 CAIX antibody (CAIX on live HeLa cells; hypoxia-grown live HeLa cells)	object based spot collocalization with H7 CAIX antibody (CAIX on live HeLa cells; hypoxia-grown live HeLa cells)	pixel based Person's correlation coefficient, colocalization with H7 CAIX antibody (CAIX on live HeLa cells; hypoxia-grown live HeLa cells)	Pearson co-localization coefficient with CAXII-selective 1B10 antibody (CAIX on live HeLa cells; hypoxia-grown live HeLa cells, SRRF/TIRF)	number of bound molecules per HeLa cell ([2]; approximately 80 h of growth under hypoxia)	concentration at which saturation was reached ([2]; hypoxia-grown HeLa cells)	Kd [3] [nM]	Compound	non-specific binding to cells ([1]; micromolar concentration range, Fig. 9B, 9C)	Kd (CAVA) [nM]	Kd (CAII) [nM]	staining of live HeLa cells grown under hypoxia (CAIX on live HeLa cells)	binding to hypoxia-grown HeLa cells in the nM concentration region ([2]; same conditions as GZ19-32, up to about 100 nM)	Kd (CAXII) [nM]	Kd (CAI) [nM]	Kd (CAVB) [nM]	concentration above which compound binds normoxia-grown WT and CAIX-KO HeLa cells ([1]; 5 min incubation, Fig. 9A) [nM]	fluorescence of compound bound to HeLa CAIX-KO cells ([1]; CAIX-KO cells grown under hypoxia, 10 nM to 100 nM)
									3-((2-(cyclooctylamino)-3,5,6-trifluoro-4-(methylsulfonyl)phenyl)sulfonyl)-N-(3',6'-dihydroxy-3-oxo-3H-spiro[isobenzofuran-1,9'-xanthen]-5-yl)propanamide and 3-((3-(cyclooctylamino)-2,5,6-trifluoro-4-(methylsulfonyl)phenyl)sulfonyl)-N-(3',6'-dihydroxy-3-oxo-3H-spiro[isobenzofuran-1,9'-xanthen]-5-yl)propanamide [GZ20-37]	bound cells in the micromolar concentration range	> 100000	> 100000	did not bind	did not bind	> 100000	> 100000	> 100000		
189 to 190	0.82	0.65	0.75	0.82	0.02	exceeded 1 million	approximately 10 nM	0.2	NS(=O)(=O)c1c(F)c(F)c(S(=O)(=O)CCC(=O)Nc2ccc3c(c2)C(=O)OC32c3ccc(O)cc3Oc3cc(O)ccc32)c(NC2CCCCCCC2)c1F [GZ19-32, 3-((2-(cyclooctylamino)-3,5,6-trifluoro-4-sulfamoylphenyl)sulfonyl)-N-(3',6'-dihydroxy-3-oxo-3H-spiro[isobenzofuran-1,9'-xanthen]-5-yl)propanamide]		400	14	labeled the cell membrane		1.3	500	13	> 100	did not show an increase in fluorescence
